This is an account of results in PubChem BioAssay (NCI).

Test in all cases: inhibition of tumour cell growth, NCI panel, 48 h
For experiment [1], the system named is BT-549 breast.
Experiment [2] deals with HCT-116 colon.
Experiment [3] concerns HL-60(TB) leukemia.
In experiment [4] the test system is IGROV1 ovarian.
Experiment [5] concerns M14 melanoma.
Experiment [6] has as its system MDA-MB-231 breast.
Experiment [7] relates to OVCAR-8 ovarian.
Experiment [8] concerns SF-539 CNS.
Experiment [9] has as its system SK-OV-3 ovarian.
In experiment [10] the test system is TK-10 renal.
Experiment [11] deals with UACC-62 melanoma.
Experiment [12] concerns CAKI-1 renal.
Experiment [13] has as its system HCC-2998 colon.
The test system of experiment [14] is MDA-MB-435.

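The compound was tested at five concentrations on cells cultured in 96-well plates, with a 48-hour exposure period. GI50 marks 50% less growth. TGI marks complete inhibition of growth.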 Some results are limits rather than exact numbers.

For the compound `COc1cccc(Nc2nc(C)c([N+](=O)[O-])c(Nc3cccc(OC)c3)n2)c1`, the TGI in experiment [1] is 8.14 µM; in experiment [2] it was over 100 µM; in [3], over 100 µM; in experiment [4], over 100 µM; in experiment [5], over 100 µM; in experiment [6], over 100 µM. Moreover, the TGI in experiment [7] is over 100 µM; in experiment [8], over 100 µM; in [9], over 100 µM; in experiment [10], 95.7 µM; in [11], 38.8 µM.

For `CN(C)P(=O)(/C(N)=N/Nc1ccc([N+](=O)[O-])cc1)N(C)C`, the TGI in [12], in experiment [13], in [2], in [3], in experiment [5] and in [7] was over 100 µM each time. In addition, the TGI in experiment [8], in experiment [10] and in experiment [11] was over 100 µM throughout.

Turning to `Cc1c2c(cc3c1C(=O)C(=O)C([C@@H](C)CO)=C3O)C(C)(C)CCC2`, the TGI was over 100 µM in [1]; over 100 µM in experiment [12]; 93.1 µM in [2]; over 100 µM in [4]; 67.5 µM in [5]; over 100 µM in experiment [6]. In addition, the TGI in experiment [14], in experiment [7], in experiment [9], in experiment [10] and in experiment [11] was over 100 µM throughout.

As to `CC(=O)O[C@H]1C(=O)[C@@]2(C)[C@H]([C@H](OC(=O)c3ccccc3)[C@]3(O)C[C@H](OC(=O)[C@H](O)[C@@H](NC(=O)c4ccc(N)cc4)c4ccccc4)C(C)=C1C3(C)C)[C@]1(OC(C)=O)CO[C@@H]1C[C@@H]2O`, the TGI was over 50 µM in experiment [1]; over 50 µM in experiment [12]; 0.0545 µM in experiment [13]; over 50 µM in [2]; 0.318 µM in [3]; over 50 µM in experiment [4]. The TGI in [5] is over 50 µM; in experiment [6] it was over 50 µM; in [7], over 50 µM; in experiment [8], 0.0309 µM; in experiment [10] it was over 50 µM; in [11] it was over 50 µM.

Take `COC(=O)/C(C)=N/NC(=S)SC`: the TGI is over 100 µM in experiment [12]; over 100 µM in [13]; 98.5 µM in experiment [2]; 28.5 µM in experiment [3]; over 100 µM in [4]; 57 µM in experiment [5]. Also, the TGI in experiment [6], in experiment [14], in experiment [7], in [8], in experiment [9] and in experiment [10] was over 100 µM throughout.

On to `O=C(CP(=O)(c1ccccc1)c1ccccc1)c1cccc(C(=O)CP(=O)(c2ccccc2)c2ccccc2)c1`, for which the TGI in experiment [12], in experiment [13], in experiment [2], in experiment [3], in [4] and in [5] was over 100 µM in each case. Also, the TGI was over 100 µM in experiment [6]; over 100 µM in experiment [14]; over 100 µM in experiment [7]; over 100 µM in [8]; 56.1 µM in experiment [9]; over 100 µM in experiment [10]. Besides, the TGI in [11] was over 100 µM.

Turning to `COc1cc2c(/C=C3/C(=O)Nc4ccc(O)cc43)c(Cl)n(Cc3ccccc3)c2cc1C`, the GI50 in [1] is 4.67 µM; in experiment [13], 0.201 µM. Besides, the TGI in experiment [1] was 24.6 µM; in [12], 19.2 µM; in [13] it was 0.799 µM; in experiment [2], 1.91 µM; in experiment [4], 16.8 µM; in [5], 11.8 µM. The TGI is 42 µM in experiment [6]; 12.2 µM in experiment [7]; 3.8 µM in experiment [8]; over 60.2 µM in experiment [9]; over 40.7 µM in [10]; over 41.9 µM in experiment [11].

As to `Cc1noc(C)c1CCCOC1COc2ccccc2OCCOCCOc2ccccc2OC1`, the TGI in experiment [12], in experiment [13], in experiment [3], in experiment [4], in experiment [5] and in [7] was over 100 µM each time. Also, the TGI in experiment [8], in experiment [9], in experiment [10] and in experiment [11] was over 100 µM each time.

For `COc1cc(C(=O)NNC(=O)c2cc(Br)ccc2NC(=O)c2cccs2)cc(OC)c1OC`, the TGI in [1] was over 100 µM; in [12], over 100 µM; in experiment [2] it was 51.5 µM; in experiment [3], 93.6 µM; in [4], over 100 µM; in [5], 59.8 µM. In addition, the TGI in experiment [14] was 50 µM; in experiment [7] it was 59.9 µM; in experiment [8], 30 µM; in experiment [9] it was 36.5 µM; in experiment [10] it was over 100 µM; in experiment [11], 34.1 µM.

For the compound `C1C2CC3CC1CC(c1nn4c(C56CC7CC(CC(C7)C5)C6)nnc4s1)(C2)C3`, the TGI in experiment [12], in experiment [13], in [2], in [3], in experiment [4] and in [5] was over 100 µM each time. Moreover, the TGI in experiment [6], in experiment [14], in [8], in experiment [9], in experiment [10] and in experiment [11] was over 100 µM in each case.

In the case of `COC(=O)c1ccccc1/C=C1\Cc2c(ccc3c2CCC3)C1=O`, the TGI in experiment [1], in [12], in [13], in [2], in [3] and in experiment [4] was over 100 µM in each case. The TGI in [5], in [14], in experiment [7], in [8], in experiment [10] and in experiment [11] was over 100 µM throughout.

Consider `Cc1cn(C2OC(CO[Si](C)(C)C(C)(C)C)/C(=C\C#N)C2O[Si](C)(C)C(C)(C)C)c(=O)[nH]c1=O` (configuration not stated), for which the TGI in [12] is over 100 µM; in experiment [2], over 100 µM; in [5], over 100 µM; in experiment [6], over 100 µM; in experiment [14], over 100 µM; in experiment [8] it was 97.1 µM. For the same compound, the TGI in experiment [9], in experiment [10] and in experiment [11] was over 100 µM in each case.
